# Source: patent US20230172936A1, “VCP/p97 INHIBITOR FOR THE TREATMENT OF CANCER” (Cleave Therapeutics, Inc., priority 2020, published 2023)
# Tests used:
# CTG-2228 = assay: Ex-vivo cytotoxicity by Cell Titer Glo; type: cell-based; conditions: Homo sapiens, 144 h; CTG-2228, 6 days
# Protocol: (§1) Acute myelogenous leukemia (AML) is the most common acute leukemia in adults. A hematologic cancer, the disease is highly heterogeneous, with multiple subtypes. About 30% of AML cases harbor a FLT3/ITD mutation making the disease highly proliferative and more aggressive with a high risk of relapse.
# (§2) Triplicate wells with media only and duplicate wells of vehicle (0.2% DMSO) were used as negative controls. […] To measure proliferation, untreated cells at days 0 and 6 were evaluated via Cell Titer Glo.
# (§3) Protocol: • 1. AML cells were thawed and resuspended in enriched media composed of StemSpan™ Serum-Free Expansion Media (SFEM), 2% heat-inactivated FBS, StemSpan™ CC110 and recombinant human IL-3. • 2. 20,000 cells/well in 100 μL volume were plated on study day 0. • 3. […] Cells were incubated in the presence of drug for 6 days. • 5. On day 6, plates were removed from the incubator and equilibrated to room temperature for 20 minutes. 100 μL/well Cell Titer Glo was added to each well and incubated for 10 minutes before plate reading. • 6. Luminescence was recorded using Tecan Infinite M Plex plate reader.
# CTG-2229 = assay: Ex-vivo cytotoxicity by Cell Titer Glo; type: cell-based; conditions: Homo sapiens, 144 h; CTG-2229, 6 days
# Protocol: as §1, §2, §3
# CTG-2236 = assay: Ex-vivo cytotoxicity by Cell Titer Glo; type: cell-based; conditions: Homo sapiens, 144 h; CTG-2236, 6 days
# Protocol: as §1, §2, §3
# CTG-2454 = assay: Ex-vivo cytotoxicity by Cell Titer Glo; type: cell-based; conditions: Homo sapiens, 144 h; CTG-2454, 6 days
# Protocol: as §1, §2, §3
# CTG-2239 = assay: Ex-vivo cytotoxicity by Cell Titer Glo; type: cell-based; conditions: Homo sapiens, 144 h; CTG-2239, 6 days
# Protocol: as §1, §2, §3
# CTG-2701 = assay: Ex-vivo cytotoxicity by Cell Titer Glo; type: cell-based; conditions: Homo sapiens, 144 h; CTG-2701, 6 days
# Protocol: as §1, §2, §3
# CTG-2457 = assay: Ex-vivo cytotoxicity by Cell Titer Glo; type: cell-based; conditions: Homo sapiens, 144 h; CTG-2457, 6 days
# Protocol: as §1, §2, §3
# CTG-2700 = assay: Ex-vivo cytotoxicity by Cell Titer Glo; type: cell-based; conditions: Homo sapiens, 144 h; CTG-2700, 6 days
# Protocol: as §1, §2, §3
# CTG-2456 = assay: Ex-vivo cytotoxicity by Cell Titer Glo; type: cell-based; conditions: Homo sapiens, 144 h; CTG-2456, 6 days
# Protocol: as §1, §2, §3
# CTG-2453 = assay: Ex-vivo cytotoxicity by Cell Titer Glo; type: cell-based; conditions: Homo sapiens, 144 h; CTG-2453, 6 days
# Protocol: as §1, §2, §3
# CTG-2704 = assay: Ex-vivo cytotoxicity by Cell Titer Glo; type: cell-based; conditions: Homo sapiens, 144 h; CTG-2704, 6 days
# Protocol: as §1, §2, §3
# CTG-2243 = assay: Ex-vivo cytotoxicity by Cell Titer Glo; type: cell-based; conditions: Homo sapiens, 144 h; CTG-2243, 6 days
# Protocol: as §1, §2, §3
# CTG-2775 = assay: Ex-vivo cytotoxicity by Cell Titer Glo; type: cell-based; conditions: Homo sapiens, 144 h; CTG-2775, 6 days
# Protocol: as §1, §2, §3
# [1] = Adverse events and visual impairment in Phase I subjects
# [2] = system: 30 passage 1 (P1) models of human acute myeloid leukemia; assay: Ex-vivo cytotoxicity by Cell Titer Glo, all models; type: cell-based; conditions: 144 h, single agent, 6 days, read-out: IC50s in these models
# Protocol: as §1, §2, §3
# [3] = system: human A549 lung adenocarcinoma xenograft tumors; assay: Tumor growth of A549 xenograft tumors; type: in vivo, mice; conditions: 18 day period
# Text: Group 1 received PO 4-days on, 3-days off doses (QD4/3 off) of vehicle.
smiles,measurement,setting,value
"Cc1cc2c(C(N)=O)cccc2n1-c1nc2c(c(NCc3ccccc3)n1)CCCN2 [Compound 1, 1-(4-(Benzylamino)-5,6,7,8-tetrahydropyrido[2,3-d]pyrimidin-2-yl)-2-methyl-1H-indole-4-carboxamide]",IC50,CTG-2228,568 nM
same,IC50,CTG-2229,752 nM
same,IC50,CTG-2236,527 nM
same,IC50,CTG-2454,208 nM
same,IC50,CTG-2239,395 nM
same,IC50,CTG-2701,395 nM
same,IC50,CTG-2457,627 nM
same,IC50,CTG-2700,386 nM
same,IC50,CTG-2456,212 nM
same,IC50,CTG-2453,307 nM
same,IC50,CTG-2704,666 nM
same,IC50,CTG-2243,460 nM
same,IC50,CTG-2775,437 nM
same,adverse events,"[1]; 25 mg QD, two subjects",No adverse events
same,symptoms of visual impairment,"[1]; 25 mg QD, two subjects",no symptoms of visual impairment
same,symptoms of visual impairment or other visual events,"[1]; any dose levels, highest level 275 mg QD",No symptoms of visual impairment or other visual events
same,symptoms of visual impairment or other visual adverse events,[1]; at equivalent plasma exposure of Compound 1 and CB-5083,no symptoms of visual impairment or other visual adverse events
same,IC50,[2],200 to 800 nM
same,TGI,[3]; 100 mg/kg QD4/3 off,61%
same,tumor growth inhibition (TGI),"[3]; 150 mg/kg BIW, PO",20%
same,TGI,[3]; 225 mg/kg once weekly (1/W),31%
